Like-named read-outs stand apart in the source and are kept apart here.
Tests used:
PLK2 = PLK2 (Homo sapiens, UniProt Q9NYY3); experiment: Straight biochemical assay: PLK2-driven synuclein phosphorylation in vitro; settings: Table 19
[1] = tested on: synuclein phosphorylation in rat ventral mesencephalon cultures (E46K-Synuclein plus ca-PLK2 lentivirus); experiment: Synuclein phosphorylation in RVM transduced with E46K-Synuclein and caPLK2; format: cell-based; settings: for EC50: inhibitor 2 h on DIV 17
Experimental: (§1) Rat Ventral Mesencephalon (RVM) cultures were prepared from E15 Wistar rats. The RVM cultures were cultured for 2 days and transduced with 0.75 MOI E46K-Synuclein lentivirus alone, or 0.75 MOI E46K-Synuclein lentivirus plus 0.75 MOI ca-PLK2 lentivirus. […] Transduced cultures were maintained in neuronal media with B27/1% FBS and 37° C./5% CO2 until treated with inhibitors. On DIV 17 (which corresponds to 15 days after viral transduction of the cultures) cells were treated with inhibitors for two hours. Cells were then harvested as detailed above in neuronal media with B27/1% FBS. A Micro BCA (Pierce) total protein assay, and total synuclein and phospho-synuclein ELISAs were performed on each plate of treated cells using standard methods.
In caPLK2 the polo-box has been deleted, activating the Thr to Asp mutation in the kinase activation loop.

[2] = molecular target: T1, over-expressed PLK2 (293) (Homo sapiens, UniProt Q9NYY3); experiment: Synuclein phosphorylation in HEK-293 cells over-expressing synuclein and PLK2; format: cell-based; settings: for Rank order of potency, Over-Expressed PLK2 (293): Table 19; for Rank order of potency, Synuclein + PLK2: Table 22
T1 construct: expressed in transfected cells; host or cells: HEK-293 naive cells, CMV-promoter expression vector, Lipofectamine 2000
Experimental: (§2) All vectors had the sequence coding for the protein of interest. Transfection was accomplished using Lipofectamine 2000 (Invitrogen, Carlsbad, Calif.) with 0.08 μg vector. Cells were washed and harvested 48 hours post-transfection. A Micro BCA (Pierce) total protein assay and total synuclein and phospho-synuclein ELISAs were performed on each plate of treated cells.

[3] = molecular target: T2, over-expressed PLK3 (293) (Homo sapiens, UniProt Q9H4B4); experiment: Synuclein phosphorylation in HEK-293 cells over-expressing synuclein and PLK3; format: cell-based; settings: for Rank order of potency, Synuclein + PLK3: Table 22
T2 construct: expressed in transfected cells; host or cells: HEK-293 naive cells, CMV-promoter expression vector
Experimental: as §2

[4] = molecular target: T3, over-expressed PLK4 (293) (Homo sapiens, UniProt O00444); experiment: Synuclein phosphorylation in HEK-293 cells over-expressing synuclein and PLK4; format: cell-based; settings: for EC50: HEK-293, Example 16, read-out: EC50 based on percent inhibition of synuclein phosphorylation, Synuclein + PLK4
T3 sequence (O00444 1-970): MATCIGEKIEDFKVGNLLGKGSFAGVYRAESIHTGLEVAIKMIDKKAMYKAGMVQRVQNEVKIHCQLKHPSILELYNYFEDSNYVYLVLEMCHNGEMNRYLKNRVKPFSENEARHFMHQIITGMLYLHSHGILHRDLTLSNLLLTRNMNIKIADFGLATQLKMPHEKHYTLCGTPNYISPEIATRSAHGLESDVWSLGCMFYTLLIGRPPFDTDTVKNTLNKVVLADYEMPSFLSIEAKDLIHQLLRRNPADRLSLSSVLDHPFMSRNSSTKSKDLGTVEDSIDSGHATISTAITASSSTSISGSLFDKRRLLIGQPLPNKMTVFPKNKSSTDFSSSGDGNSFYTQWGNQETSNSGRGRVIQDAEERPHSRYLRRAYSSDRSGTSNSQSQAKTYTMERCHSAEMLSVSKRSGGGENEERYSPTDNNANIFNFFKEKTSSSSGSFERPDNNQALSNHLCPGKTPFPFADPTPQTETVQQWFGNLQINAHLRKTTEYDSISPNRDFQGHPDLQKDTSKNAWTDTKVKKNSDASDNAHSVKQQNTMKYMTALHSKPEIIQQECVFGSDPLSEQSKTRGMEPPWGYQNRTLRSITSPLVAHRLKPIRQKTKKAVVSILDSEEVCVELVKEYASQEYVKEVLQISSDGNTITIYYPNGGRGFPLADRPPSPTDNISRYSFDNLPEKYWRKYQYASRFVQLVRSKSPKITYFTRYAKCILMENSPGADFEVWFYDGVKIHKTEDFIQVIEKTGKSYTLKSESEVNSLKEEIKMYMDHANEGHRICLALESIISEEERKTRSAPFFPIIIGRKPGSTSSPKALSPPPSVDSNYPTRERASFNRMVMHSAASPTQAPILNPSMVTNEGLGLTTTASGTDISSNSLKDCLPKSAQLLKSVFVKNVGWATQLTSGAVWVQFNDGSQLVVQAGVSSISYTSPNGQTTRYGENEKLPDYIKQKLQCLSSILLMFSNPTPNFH
Experimental: as §2

[5] = tested on: synuclein phosphorylation in the cellular paradigms tested; experiment: Inhibition of synuclein phosphorylation, several cellular paradigms; format: cell-based
[6] = tested on: synuclein phosphorylation in C56BL/6 E46K-Synuclein transgenic mouse cortical cultures; format: cell-based
Experimental: (§3) Mouse cortical cultures from fetal (i) Swiss-Webster, (ii) C56BL/6 WT and (iii) C56BL/6 E46K-Synuclein Trangenic mice were prepared and maintained in B27/DMEM/1% Penicillin-Streptomycin at 37° C./10% CO2 for three to fourteen days and then treated with kinase inhibitors.
(§4) Cultures were exposed to inhibitors for two hours in B27/DMEM/1% Penicillin-Streptomycin. Cells were immediately washed in 100 μL of PBS plus Mg^2+ and Ca^2+, and harvested in ice-cold CEB minus EGTA plus protease inhibitors, frozen on dry ice and stored at −80° C. until processed. A Micro BCA (Pierce) total protein assay, and total synuclein and phospho-synuclein ELISAs were performed on each plate of treated cells using standard methods.

[7] = tested on: synuclein phosphorylation in rat ventral mesencephalon cultures (E46K-Synuclein lentivirus); experiment: Synuclein phosphorylation in RVM transduced with E46K-Synuclein; format: cell-based
Experimental: as §1

endogenous kinase (293) = experiment: Synuclein phosphorylation by endogenous kinase in HEK-293 cells (synuclein + vector); format: cell-based, human
Experimental: as §2

[8] = molecular target: synuclein phosphorylation by endogenous kinase in C56BL/6 WT mouse cortical cultures; experiment: Synuclein phosphorylation in WT mouse cortical cultures (WT-MCC); format: cell-based; settings: inhibitor 2 h; phospho-synuclein ELISA
Experimental: as §3, §4

[9] = tested on: synuclein phosphorylation in MCC; experiment: Synuclein phosphorylation in MCC treated with TBB; format: cell-based, mouse; settings: even at concentrations of 100 μM; data not shown
Experimental: as §3, §4
To confirm that the inhibitory effect DMAT is due to inhibition of […], MCC were treated with TBB, a very specific CKII inhibitor. TBB had no effect on synuclein phosphorylation, even at concentrations of 100 μM (data not shown). Thus, we are confident that the inhibitory effect of DMAT on synuclein phosphorylation is due to its direct activity on PLK2 and not CKII.

T2 sequence (Q9H4B4 whole entry): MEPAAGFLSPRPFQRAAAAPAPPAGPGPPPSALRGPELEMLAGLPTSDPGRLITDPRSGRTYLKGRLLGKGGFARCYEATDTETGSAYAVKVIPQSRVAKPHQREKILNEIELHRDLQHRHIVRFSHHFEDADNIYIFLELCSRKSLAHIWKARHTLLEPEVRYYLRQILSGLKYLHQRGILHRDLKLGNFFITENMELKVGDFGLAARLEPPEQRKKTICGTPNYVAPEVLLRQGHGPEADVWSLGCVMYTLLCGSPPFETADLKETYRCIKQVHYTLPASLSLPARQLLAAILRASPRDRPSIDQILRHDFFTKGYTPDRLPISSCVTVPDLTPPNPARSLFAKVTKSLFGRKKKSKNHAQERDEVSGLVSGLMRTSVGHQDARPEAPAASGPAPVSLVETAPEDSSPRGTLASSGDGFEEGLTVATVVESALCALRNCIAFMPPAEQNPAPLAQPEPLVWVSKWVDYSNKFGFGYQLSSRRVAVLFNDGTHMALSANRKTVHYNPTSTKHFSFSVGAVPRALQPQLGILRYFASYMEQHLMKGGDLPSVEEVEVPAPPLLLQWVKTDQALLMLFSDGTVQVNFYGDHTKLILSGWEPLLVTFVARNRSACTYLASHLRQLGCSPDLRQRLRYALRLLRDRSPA
T1 sequence (Q9NYY3 whole entry): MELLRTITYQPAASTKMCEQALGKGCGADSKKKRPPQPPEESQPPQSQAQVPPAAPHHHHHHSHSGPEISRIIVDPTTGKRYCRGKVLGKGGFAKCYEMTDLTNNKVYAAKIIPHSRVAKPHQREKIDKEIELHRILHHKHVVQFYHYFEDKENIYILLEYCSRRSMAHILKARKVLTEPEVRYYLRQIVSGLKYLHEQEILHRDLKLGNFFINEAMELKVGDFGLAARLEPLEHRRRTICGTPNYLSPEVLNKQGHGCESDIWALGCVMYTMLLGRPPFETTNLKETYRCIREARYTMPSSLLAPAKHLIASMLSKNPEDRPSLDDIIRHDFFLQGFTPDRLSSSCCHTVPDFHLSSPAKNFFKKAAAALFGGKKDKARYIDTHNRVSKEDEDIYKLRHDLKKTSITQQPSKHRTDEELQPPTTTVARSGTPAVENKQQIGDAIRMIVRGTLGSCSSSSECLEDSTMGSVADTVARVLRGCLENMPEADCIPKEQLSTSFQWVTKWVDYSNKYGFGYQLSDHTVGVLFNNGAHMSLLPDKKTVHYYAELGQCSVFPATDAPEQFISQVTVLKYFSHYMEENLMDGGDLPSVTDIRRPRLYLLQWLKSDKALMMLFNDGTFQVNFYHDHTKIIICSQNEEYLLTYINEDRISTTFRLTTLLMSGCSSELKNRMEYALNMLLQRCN
Sequence of PLK2 (Q9NYY3 whole entry): as above

For `NC(=O)c1sc2c([N+](=O)[O-])cc(C(F)(F)F)cc2[n+]1[O-]` [ELN-481080], which “Rank order of potency, Straight Biochemical” value (PLK2) is on record?
Its value is 3.

And the EC50 ([1]; Rattus norvegicus)?
Its EC50 is 25.2 µM.

What about the “Rank order of potency, Over-Expressed PLK2 (293)” value [2] of the same compound?
The value was 5.

What about the “Rank order of potency, Synuclein + PLK2” value [2] of the same compound?
Its value is 3.

What about the “Rank order of potency, Synuclein + PLK3” value [3] of the same compound?
The value was 3.

And the “inhibition of synuclein phosphorylation by over-expressed PLK3” value ([3]; concentrations of 30-100 μM)?
The value was 30-40%.

And the EC50 [4]?
Its EC50 is > 100 µM.

What about the “inhibition of synuclein phosphorylation by over-expressed PLK4” value ([4]; concentrations of 30-100 μM) of the same compound?
Its value is 30-40%.

And the EC50 ([5]; range over (most of) the cell types tested, read-out: EC50 values for inhibition of synuclein phosphorylation in the cellular paradigms)?
The EC50 was 12 to 38 µM.

Which EC50 ([1]; Rattus norvegicus) does the source give for `COC[C@H]1OC(=O)c2coc3c2[C@@]1(C)C1=C(C3=O)[C@@H]2CCC(=O)[C@@]2(C)C[C@H]1OC(C)=O` [Wortmannin] here?
Its EC50 is > 100 µM.

Which EC50 ([5]; most EC50 values, all cellular paradigms, read-out: EC50 values in cellular paradigms) does the source give for `CC[C@@H]1C(=O)N(C)c2cnc(Nc3ccc(C(=O)NC4CCN(C)CC4)cc3OC)nc2N1C1CCCC1` [ELN-481574-2, 4-[[(7r)-8-cyclopentyl-7-ethyl-5,6,7,8-tetrahydro-5-methyl-6-oxo-2-pteridinyl]amino]-3-methoxy-n-(1-methyl-4-piperidinyl)-benzamide] here?
Its EC50 is ≤ 0.1 µM.

For `CN(C)c1nc2c(Br)c(Br)c(Br)c(Br)c2[nH]1` [DMAT, 2-Dimethylamino-4,5,6,7-tetrabromo-1H-benzimidazole], which “Rank order of potency, Straight Biochemical” value (PLK2) is on record?
The value was 2.

What about the “Rank order of potency, E46K-Syn TG MCC” value ([6]; Table 19) of the same compound?
The value was 4.

And the “Rank order of potency, RVM E46K-Synuclein” value ([7]; Table 19)?
The value was 4.

And the EC50 ([1]; Rattus norvegicus)?
Its EC50 is 28.5 µM.

What about the “Rank order of potency, RVM E46K-Synuclein caPLK2” value ([1]; Table 19) of the same compound?
The value was 4.

What about the “Rank order of potency, Synuclein + Vector” value (endogenous kinase (293); Table 22) of the same compound?
Its value is 2.

What about the “Rank order of potency, Over-Expressed PLK2 (293)” value [2] of the same compound?
Its value is 4.

And the “Rank order of potency, Synuclein + PLK2” value [2]?
The value was 2.

And the “Rank order of potency, Synuclein + PLK3” value [3]?
Its value is 2.

What about the EC50 [4] of the same compound?
The EC50 was 74.3 µM.

What about the “Rank order of potency, Synuclein + PLK4” value ([4]; Table 22) of the same compound?
Its value is 2.

And the EC50 ([5]; Homo sapiens, HEK293, read-out: EC50 values for the over-expressed PLKs)?
The EC50 was 14 to 74 µM.

What about the EC50 ([5]; read-out: EC50 values for inhibition of synuclein phosphorylation in the cellular paradigms) of the same compound?
Its EC50 is 16 to 33 µM.

How did the EC50 [8] turn out when Scytonemin was run?
The EC50 was > 100 µM.

What about the EC50 ([6]; inhibitor 2 h, phospho-synuclein ELISA, read-out: E46K-Syn TG MCC (EC50)) of the same compound?
Its EC50 is > 100 µM.

And the EC50 ([7]; inhibitor 2 h on DIV 17)?
Its EC50 is > 100 µM.

And the EC50 [1]?
Its EC50 is > 100 µM.

What about the EC50 (endogenous kinase (293); Table 18) of the same compound?
The EC50 was > 100 µM.

And the “inhibition of 50% of synuclein phosphorylation” value ([5]; in any of the cells or in the in vitro assay)?
Its value is “did not inhibit 50% of synuclein phosphorylation”.

How did the “effect on synuclein phosphorylation” value [9] turn out when `Brc1c(Br)c(Br)c2[nH]nnc2c1Br` [TBB, 4,5,6,7-Tetrabromo-2-azabenzimidazole] was run?
The value was “no effect”.

Source: patent publication US8148089B2, “Alpha-synuclein kinase” (Elan Pharma International Limited, priority 2006, dated 2012)
